Consider 12 compounds from ChEMBL document CHEMBL1201862, “PubChem BioAssay data set” (2004).

Calls of active or inactive are those of the source.

Assay [1] deals with T1, Neuropeptide Y receptor type 2 (Homo sapiens, UniProt P49146).
T1 sequence (P49146 whole entry): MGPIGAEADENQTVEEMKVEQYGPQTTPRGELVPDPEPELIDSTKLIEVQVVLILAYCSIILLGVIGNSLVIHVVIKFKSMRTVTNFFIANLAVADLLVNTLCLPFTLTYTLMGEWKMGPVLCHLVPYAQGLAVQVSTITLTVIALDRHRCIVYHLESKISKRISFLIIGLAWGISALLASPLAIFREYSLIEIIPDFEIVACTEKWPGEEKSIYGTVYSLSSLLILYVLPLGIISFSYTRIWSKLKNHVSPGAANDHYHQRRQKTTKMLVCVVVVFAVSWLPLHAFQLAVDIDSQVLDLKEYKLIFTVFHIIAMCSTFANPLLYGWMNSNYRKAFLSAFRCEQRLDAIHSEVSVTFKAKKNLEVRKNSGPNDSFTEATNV
The class given is functional, cell-based.

Another assay has as its target Phospholipase A2 (Homo sapiens, UniProt P04054). The class given is functional.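 Also: confirmatory dose-response counterscreen on phospholipase A2, testing hits that came from an ultra-high-throughput screen for ATG4B inhibitors.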
Assay [2] concerns the target T2, Neuropeptide Y receptor type 1 (Homo sapiens, UniProt P25929).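 Also: HEK293 cells with a CNG channel challenged with NPY then isoproterenol; potency as antagonist that reverses NPY suppression of cAMP signal.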
T2 sequence (P25929 whole entry): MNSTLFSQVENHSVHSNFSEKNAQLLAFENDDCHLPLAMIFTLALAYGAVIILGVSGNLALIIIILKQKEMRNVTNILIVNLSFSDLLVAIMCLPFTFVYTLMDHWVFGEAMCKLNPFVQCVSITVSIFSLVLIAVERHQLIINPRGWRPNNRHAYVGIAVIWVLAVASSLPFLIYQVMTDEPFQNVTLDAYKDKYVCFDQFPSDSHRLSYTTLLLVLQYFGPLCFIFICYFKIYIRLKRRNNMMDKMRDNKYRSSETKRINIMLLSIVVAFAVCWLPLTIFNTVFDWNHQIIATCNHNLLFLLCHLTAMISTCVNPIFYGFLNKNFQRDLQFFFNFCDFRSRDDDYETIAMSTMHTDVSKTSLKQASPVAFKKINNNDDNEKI
The class given is functional.

Another assay has as its target T3, Cysteine protease ATG4B (Homo sapiens, UniProt Q9Y4P1).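 Also: Fluorescence-based dose-response confirmation assay measuring inhibition of ATG4B activity.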
T3 sequence (Q9Y4P1 whole entry): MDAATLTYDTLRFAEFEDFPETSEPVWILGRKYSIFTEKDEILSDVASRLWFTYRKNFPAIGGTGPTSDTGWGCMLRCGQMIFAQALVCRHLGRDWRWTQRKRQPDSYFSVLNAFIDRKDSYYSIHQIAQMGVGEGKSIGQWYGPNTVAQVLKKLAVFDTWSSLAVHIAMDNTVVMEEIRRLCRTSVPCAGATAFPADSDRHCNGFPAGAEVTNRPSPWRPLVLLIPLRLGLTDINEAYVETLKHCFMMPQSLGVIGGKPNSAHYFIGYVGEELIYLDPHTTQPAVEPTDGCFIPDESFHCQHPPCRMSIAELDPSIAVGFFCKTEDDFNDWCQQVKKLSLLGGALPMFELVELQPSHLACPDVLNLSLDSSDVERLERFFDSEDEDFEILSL
The class given is functional.

The test system of another assay is SN12K1. In words: cells. The class given is functional. To be noted: Homo sapiens.
In another assay the test system is P388. The assay is described as follows: cells. To be noted: Mus musculus. The format is functional.
A further assay deals with P388/ADR. In words: cells. The class given is functional. The following applies: Mus musculus.
Another assay relates to Escherichia coli. The assay is described as follows: microbe, parasite or virus in culture.
For assay [3], the target named is T4, Zinc finger protein mex-5 (Caenorhabditis elegans, UniProt Q9XUB2).
T4 sequence (Q9XUB2 whole entry): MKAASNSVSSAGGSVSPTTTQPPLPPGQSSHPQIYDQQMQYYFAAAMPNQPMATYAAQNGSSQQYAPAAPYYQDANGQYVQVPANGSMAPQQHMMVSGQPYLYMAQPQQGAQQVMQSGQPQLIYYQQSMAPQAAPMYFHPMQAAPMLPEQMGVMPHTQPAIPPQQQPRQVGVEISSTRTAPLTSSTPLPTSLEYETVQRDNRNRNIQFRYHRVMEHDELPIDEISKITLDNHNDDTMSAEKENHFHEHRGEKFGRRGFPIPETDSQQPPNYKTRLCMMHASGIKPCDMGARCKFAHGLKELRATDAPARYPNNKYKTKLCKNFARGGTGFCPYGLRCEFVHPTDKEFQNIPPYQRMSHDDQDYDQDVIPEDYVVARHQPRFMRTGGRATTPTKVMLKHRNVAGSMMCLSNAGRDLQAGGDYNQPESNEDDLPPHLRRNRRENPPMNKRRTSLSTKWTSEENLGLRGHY
In words: MEX-5/TCR-2 RNA interaction inhibitors, dose response, biochemical, C. elegans, fluorescence polarization (AID 1960).

The target in assay [4] is T5, Carboxy-terminal domain RNA polymerase II polypeptide A small phosphatase 1 (Homo sapiens, UniProt Q9GZU7).
T5 sequence (Q9GZU7 whole entry): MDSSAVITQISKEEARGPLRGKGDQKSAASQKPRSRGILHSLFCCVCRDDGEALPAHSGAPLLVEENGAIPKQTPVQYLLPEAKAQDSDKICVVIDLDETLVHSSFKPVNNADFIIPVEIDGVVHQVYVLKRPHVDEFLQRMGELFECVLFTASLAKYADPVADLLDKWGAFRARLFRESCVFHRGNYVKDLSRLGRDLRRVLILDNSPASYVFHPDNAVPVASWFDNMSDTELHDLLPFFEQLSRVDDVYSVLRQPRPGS
In words: inhibitors of CTDSP1, concentration-response testing, biochemical assay, absorbance-based, actives from ultra-high-throughput screening (AID 540297). The format is functional.

Assay [5] deals with T6, Histone-lysine N-methyltransferase NSD2 (Homo sapiens, UniProt O96028).
T6 sequence (O96028 whole entry): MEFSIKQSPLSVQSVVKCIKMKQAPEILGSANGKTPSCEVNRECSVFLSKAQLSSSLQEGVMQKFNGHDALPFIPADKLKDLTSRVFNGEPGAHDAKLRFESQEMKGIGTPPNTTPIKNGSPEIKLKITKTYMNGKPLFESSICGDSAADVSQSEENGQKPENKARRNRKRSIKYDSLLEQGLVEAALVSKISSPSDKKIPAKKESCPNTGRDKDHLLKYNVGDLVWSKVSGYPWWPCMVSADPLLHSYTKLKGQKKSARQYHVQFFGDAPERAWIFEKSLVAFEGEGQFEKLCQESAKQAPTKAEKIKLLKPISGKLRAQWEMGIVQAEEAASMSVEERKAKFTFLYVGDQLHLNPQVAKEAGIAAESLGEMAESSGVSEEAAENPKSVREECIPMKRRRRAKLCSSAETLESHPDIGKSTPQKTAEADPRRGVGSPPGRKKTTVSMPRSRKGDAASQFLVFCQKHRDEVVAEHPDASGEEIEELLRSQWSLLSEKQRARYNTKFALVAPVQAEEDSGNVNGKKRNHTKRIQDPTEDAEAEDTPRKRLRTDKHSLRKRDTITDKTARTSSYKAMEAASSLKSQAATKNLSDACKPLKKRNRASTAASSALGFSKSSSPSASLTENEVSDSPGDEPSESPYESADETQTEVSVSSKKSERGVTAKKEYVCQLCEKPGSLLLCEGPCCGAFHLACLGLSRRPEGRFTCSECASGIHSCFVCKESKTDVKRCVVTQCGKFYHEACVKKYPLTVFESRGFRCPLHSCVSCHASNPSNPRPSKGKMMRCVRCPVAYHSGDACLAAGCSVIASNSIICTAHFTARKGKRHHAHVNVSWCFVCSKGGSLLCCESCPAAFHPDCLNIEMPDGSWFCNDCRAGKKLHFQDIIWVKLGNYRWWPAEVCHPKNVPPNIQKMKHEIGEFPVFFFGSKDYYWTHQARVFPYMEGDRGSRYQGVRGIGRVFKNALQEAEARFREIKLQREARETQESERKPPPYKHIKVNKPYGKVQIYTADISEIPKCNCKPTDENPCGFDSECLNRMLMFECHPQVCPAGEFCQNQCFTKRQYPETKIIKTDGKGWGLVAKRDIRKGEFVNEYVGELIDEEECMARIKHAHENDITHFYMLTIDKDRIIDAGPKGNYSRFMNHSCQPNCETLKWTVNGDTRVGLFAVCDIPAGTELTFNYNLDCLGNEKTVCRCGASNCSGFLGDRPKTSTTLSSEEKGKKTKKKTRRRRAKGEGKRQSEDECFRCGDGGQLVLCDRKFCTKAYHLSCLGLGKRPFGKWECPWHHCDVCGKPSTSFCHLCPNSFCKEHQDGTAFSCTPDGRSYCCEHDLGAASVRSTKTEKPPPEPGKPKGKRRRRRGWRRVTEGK
The class given is biochemical.

For assay [6], the target named is T7, RNA-binding protein pos-1 (Caenorhabditis elegans, UniProt G5EF15).
T7 sequence (G5EF15 whole entry): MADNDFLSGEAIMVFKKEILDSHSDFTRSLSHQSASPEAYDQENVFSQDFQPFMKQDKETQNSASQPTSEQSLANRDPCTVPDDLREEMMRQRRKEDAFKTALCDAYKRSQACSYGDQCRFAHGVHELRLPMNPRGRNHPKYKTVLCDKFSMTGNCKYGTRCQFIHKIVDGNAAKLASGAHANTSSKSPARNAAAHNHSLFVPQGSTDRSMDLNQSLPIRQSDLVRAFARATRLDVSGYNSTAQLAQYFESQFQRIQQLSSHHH
In words: inhibitors of POS-1/mex-3 RNA binding, dose response, biochemical, fluorescence polarization (AID 1964).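 Also: purified POS-1 fused to maltose binding protein made in E. coli; potency of compounds blocking POS-1 binding to fluorescent RNA.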

Assay [7] has as its target T8, Mitochondrial peptide methionine sulfoxide reductase (Bos taurus, UniProt P54149).
T8 sequence (P54149 whole entry): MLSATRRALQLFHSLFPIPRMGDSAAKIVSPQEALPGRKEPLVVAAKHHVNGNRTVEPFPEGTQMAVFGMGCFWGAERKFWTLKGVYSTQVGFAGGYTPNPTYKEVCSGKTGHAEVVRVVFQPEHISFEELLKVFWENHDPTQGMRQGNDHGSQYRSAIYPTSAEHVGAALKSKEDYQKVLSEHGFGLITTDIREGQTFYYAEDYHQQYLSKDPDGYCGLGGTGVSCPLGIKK
The assay is described as follows: Absorbance-based biochemical high throughput dose response assay for activators of Methionine sulfoxide reductase A (MsrA). The class given is functional.

The target of assay [8] is T9, Endoribonuclease toxin MazF (Escherichia coli K-12, UniProt P0AE70).
T9 sequence (P0AE70 whole entry): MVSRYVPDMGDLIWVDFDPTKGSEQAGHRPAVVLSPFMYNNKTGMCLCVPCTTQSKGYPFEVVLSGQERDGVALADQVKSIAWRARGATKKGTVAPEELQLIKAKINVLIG
In words: MazF toxin RNase activators, dose response, biochemical, fluorescence, single-stranded RNA substrate, uHTS hits (AID 588481). The format is functional.

In assay [9] the target is T9, Endoribonuclease toxin MazF. The assay is described as follows: fluorescent RNA oligo signal without MazF, dose response, counter-screen for MazEF activator project, biochemical, fluorescence, single-stranded RNase substrate (AID 588502). The format is functional.
The next assay concerns HEK293. In words: inhibitors of LMP1-driven NF-kB reporter, dose response, cell-based, HEK293, luciferase, cherry-pick (AID 588343). The following applies: Homo sapiens. The format is functional.
Assay [10] concerns the target DNA dC->dU-editing enzyme APOBEC-3A (Homo sapiens, UniProt P31941). The assay is described as follows: SAR analysis of small molecule inhibitors of APOBEC3A DNA Deaminase via a fluorescence-based single-stranded DNA deaminase assay - Set 2. The following applies: read-out: IC50_Mean. The class given is functional.
Assay [11] concerns the target DNA dC->dU-editing enzyme APOBEC-3G (Homo sapiens, UniProt Q9HC16). The assay is described as follows: SAR analysis of small molecule inhibitors of APOBEC3G DNA Deaminase via a fluorescence-based single-stranded DNA deaminase assay - Set 2. The following applies: read-out: IC50_Mean. The class given is functional.

Phospholipase A2, sequence (P04054 whole entry): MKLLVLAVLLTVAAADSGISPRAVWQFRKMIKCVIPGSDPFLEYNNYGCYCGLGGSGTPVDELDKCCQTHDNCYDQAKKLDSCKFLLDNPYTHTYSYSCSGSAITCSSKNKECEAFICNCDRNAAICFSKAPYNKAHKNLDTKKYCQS
DNA dC->dU-editing enzyme APOBEC-3G, sequence (Q9HC16 whole entry): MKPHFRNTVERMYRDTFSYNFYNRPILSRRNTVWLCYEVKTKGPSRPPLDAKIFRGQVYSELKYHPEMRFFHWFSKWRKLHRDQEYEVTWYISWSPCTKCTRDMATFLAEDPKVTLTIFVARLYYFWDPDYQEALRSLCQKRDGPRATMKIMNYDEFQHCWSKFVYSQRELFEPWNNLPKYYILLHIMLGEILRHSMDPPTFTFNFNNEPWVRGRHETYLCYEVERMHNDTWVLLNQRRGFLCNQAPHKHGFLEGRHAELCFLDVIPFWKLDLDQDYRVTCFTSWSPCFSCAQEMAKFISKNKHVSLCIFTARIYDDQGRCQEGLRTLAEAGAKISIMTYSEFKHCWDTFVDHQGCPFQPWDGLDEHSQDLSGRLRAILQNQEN
DNA dC->dU-editing enzyme APOBEC-3A, sequence (P31941 whole entry): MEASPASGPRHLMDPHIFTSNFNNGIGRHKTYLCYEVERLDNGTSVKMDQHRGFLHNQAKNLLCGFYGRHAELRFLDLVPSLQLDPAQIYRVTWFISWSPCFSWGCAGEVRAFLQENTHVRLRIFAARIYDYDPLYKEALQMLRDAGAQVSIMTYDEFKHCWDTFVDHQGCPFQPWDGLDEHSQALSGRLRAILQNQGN

Consider `CC(Sc1ccc(Cl)cc1)C(=O)Nc1ccccc1-c1ccccc1` (centres undefined), for which the IC50 was 4.77 µM (active) in [1], 4.74 µM (active) at Phospholipase A2, 10.3 µM (not active) in [2] and 49.7 µM (inactive) on Cysteine protease ATG4B.
For orientation: GI50 means the concentration at which growth is held to half of that of the control. As for `COc1cc([C@@H]2c3cc4c(cc3C[C@H]3COC(=O)[C@@H]32)OCO4)cc(OC)c1OC` [DESOXYPODOPHYLLOTOXIN], the GI50 in the assay with SN12K1 is 0.00596 µM (active); in the assay with P388 it was 0.005 µM (active); in the assay on P388/ADR it was 0.0108 µM (active).
As for `CN1c2c(O)nc(N)nc2NCC1CCNc1ccc(C(=O)NC(CCC(=O)O)C(=O)O)cc1` (centres undefined), the GI50 in the assay on SN12K1 was 5.5 µM (inactive); in the assay on P388 it was 4.5 µM (inactive); in the assay on P388/ADR it was 2.49 µM (inactive).
In general, AC50 refers to the concentration giving half of the maximal activity seen. One may read the EC50 as the concentration at which the effect is half-maximal. Consider `CCOc1cccc(=O)c2c(C)n(-c3ccc(C(=O)O)cc3)c(C)c12`, for which the AC50 was > 150 µM (inactive) with Escherichia coli and 17.2 µM (active) in assay [5]. Moreover, the EC50 in [3] was 29.6 µM (active); in assay [6], 41.3 µM (active). Also, the IC50 in [4] is 4.54 µM (active).
For the compound `COc1cc(OC)cc(-c2nc3ccccc3c(=O)n2OC(=O)c2ccccc2C)c1`, the IC50 at Phospholipase A2 is 7.51 µM (active); at Cysteine protease ATG4B, 21.4 µM (inactive).
Consider `NC(=S)NN=C1CSSC1`, for which, in [7], the EC50 is 12.9 µM (inactive).
For the compound `CCSc1nnc(N2C(=O)C(O)=C(C(=O)c3ccco3)C2c2cccc(OC)c2)s1` (centres undefined), the EC50 in assay [8] and in assay [9] was > 99 µM (inactive) in each case.
In the case of `COc1ccc(-n2c(C)c([N+](=O)[O-])c3ccc(O)c(CN(C)C)c32)cc1`, in the assay with HEK293, the AC50 is 2.53 µM (active).
For `CCCCCCNC(=O)C(C)C1CCC2(C)C=CC(=O)C(C)=C2C1O` (centres undefined), the GI50 in the assay on SN12K1 is > 100 µM (inactive); with P388, 62.5 µM (inactive); in the assay on P388/ADR it was > 42.3 µM (inactive).
Take `O=C(NCc1ccccc1)c1cccc(COc2ccc3c(c2)CCC3)c1`: in the assay with HEK293, the AC50 was 4.83 µM (active).
In the case of `CN(Cc1ccccc1)C(=O)c1cc2ncc(Br)cn2n1`, the values for the IC50 in assay [10] and in assay [11] were 34.5 µM (inactive) and 77.8 µM (inactive), respectively.
On to `N=c1c[n+](N2CCOCC2)[n-]o1`, for which the EC50 in [8] is 30.3 µM (inactive); in assay [9], > 99 µM (inactive).
